According to patent EP2739262B1, “USE OF A CB1 RECEPTOR ANTAGONIST AS A WHITENING AND/OR ANTI-BROWNING AGENT FOR KERATIN MATERIAL” (L'OREAL, priority 2011, dated 2013):
Where two headings read alike, the source gives them in different places.

Columns and labels:
[1] = tested on: mélanocytes épidermiques humains normaux (NHEM); test: Melanin content of melanocytes (spectrophotometry at 450 nm); type: cell-based; settings: result in words; for quantité de mélanine dans les mélanocytes (NHEM): via the CB1 receptor
Description: Des mélanocytes épidermiques humains normaux (NHEM) isolés de prépuce et fournis par Promocell (Heidelberg, Allemagne), sont cultivés pendant 24h à 37°C dans une atmosphère humide à 5% de CO2 dans un milieu de culture adapté M2 (Promocell).
L'AEA et les autres composés sont ajoutés directement dans le milieu de culture. 24h après chaque traitement, la viabilité des cellules a été mesurée par l'utilisation du colorant d'exclusion bleu Trypan (Maccarone et al., 2003).
Le mAEA et l'AEA sont testés in vitro à une concentration de 1 µM et comparés. Le mAEA est aussi utilisé à cette concentration quand il est utilisé en combinaison avec le SR1 à 0,1 µM.
La quantité en mélanine présente dans les cellules NHEM est mesurée selon une méthode connue de l'homme du métier (Xiao et al., Arch Dermatol Res 2007; 299 : 245-57). Selon cette méthode, les cellules NHEM sont traitées à la trypsine et lavées deux fois avec un tampon phosphate salin. Ensuite les échantillons sont resuspendus dans 200 µl d'eau MilliQ et 1 ml d'un mélange éthanol : éther (1:1, vol/vol) est ajouté pour éliminer les substances opaques autres que la mélanine. Après 15 minutes, les échantillons sont centrifugés à 600g pendant 5 minutes. Le culot est séché à l'air et dissout dans 200 µl de soude 1N. Les échantillons sont ensuite chauffés à 80°C pendant une heure et refroidis.
La quantité de mélanine est déterminée par spectrophotométrie à 450 nm en utilisant les contrôles standards de mélanine fournis par Sigma Chemical Co., de façon à vérifier la gamme de linéarité de l'essai. La quantité de mélanine est exprimée par rapport au contrôle.
Les résultats donnés sont les moyennes avec leurs écarts type de 3 essais indépendants, chacun réalisé en triplicata. Ils ont été comparés par analyse de variance (ANOVA).

[2] = tested on: epidermes reconstruits pigmentés (ERP); test: Depigmenting effect on reconstructed pigmented epidermis (ERP): melanin quantified by image analysis of Fontana Masson stained sections; type: cell-based, humains; settings: for production de mélanine dans les épidermes pigmentés reconstruits: result in words
Description: Des épidermes pigmentés sont reconstruits sur un support collagénique (BPER) à l'aide de mélanocytes et kératinocytes humains normaux.
Les épidermes sont obtenus après 8 jours de reconstruction, les mélanocytes choisis sont de phototype estimé IV.1
Certains épidermes sont traités quotidiennement par le placebo, d'autres par le produit à tester […] à différentes concentrations (0,1 µM et 0,5µM).
Le produit à tester est évalué à deux concentrations en comparaison à son solvant seul (placebo) et à un actif dépigmentant de référence, le lucinol à 500µM. Les épidermes reconstruits ainsi traités sont irradiés ou non avec des UV.^2
Chaque condition expérimentale est réalisée en quadruplicat.
La qualité histologique des épidermes après traitement est évaluée sur coupes histologiques après coloration HES afin de déterminer l'impact du traitement sur les épidermes. Aussi la physiologie des mélanocytes est étudiée pour détecter une éventuelle mélano-cytotoxicité. Si aucune altération histologique ni aucun effet mélano-toxique du produit évalué n'est révélé, une quantification de la pigmentation est effectuée par quantification de la mélanine sur coupes histologiques par analyse d'images
Une quantification de la pigmentation par quantification microscopique de la mélanine est alors réalisée et permet d'objectiver une activité propigmentante du composé à tester.
La mélanine présente dans l'épiderme est colorée sur coupes histologiques (coloration Fontana Masson) puis quantifiée par analyse d'images. Pour cela, chaque épiderme est photographié sur toute sa largeur à l'aide d'un microscope. Environ 10 images sont acquises par épiderme (lumière blanche, grossissement X20).
La surface occupée par la mélanine est quantifiée à l'aide d'un logiciel d'analyse d'image développé à façon. Brièvement, chaque image est segmentée en 4 zones selon leur couleur (lumière, stratum corneum, épiderme vivant et BPER). La mélanine présente dans l'épiderme sous forme de grains noirs est seuillée comme étant la zone la plus sombre de l'épiderme sur le plan rouge. Les pixels occupés par la mélanine dans l'épiderme entier ou les couches vivantes sont ensuite quantifiés.
Cette quantification rend compte de la surface occupée par la mélanine ainsi que de la localisation moyenne de la mélanine dans l'épiderme.
Les résultats ci-dessous sont exprimés en pourcentage de stimulation relative par rapport au témoin cultivé en milieu de co-culture standard.

**Q.** With `CCCCC/C=C\C/C=C\C/C=C\C/C=C\CCCC(=O)NCCO` [AEA, N-arachidonoylethanolamine] as the molecule, how does the “quantité de mélanine dans les mélanocytes (NHEM)” value [1] read?
**A.** augmentent de manière significative la quantité de mélanine

**Q.** `CCCCc1ccc(O)cc1O` [Lucinol] was tested. Which activity at 50 µM ([2]; light or radiation study, 360 h, with UV irradiation, 50µM 150mJ/cm^2 UVB SYST D15, irradiated DMSO = 131,914894, read-out: mélanine, % par rapport au témoin (DMSO 1/1000 = 100)) did it give?
**A.** 31.9%

**Q.** What about the activity at 30 µM ([2]; light or radiation study, 408 h, without UV irradiation, 30µM SYST D17, read-out: mélanine, % par rapport au témoin (DMSO 1/1000 = 100)) of the same molecule?
**A.** 10.5%

**Q.** Which “effets pro-pigmentants du mAEA” value ([1]; SR1 0,1 µM with mAEA 1 µM) does the source give for `Cc1c(C(=O)NN2CCCCC2)nn(-c2ccc(Cl)cc2Cl)c1-c1ccc(Cl)cc1` [SR141716, 5-(4-Chlorophenyl)-1-(2,4-dichloro-phenyl)-4-methyl-N-(piperidin-1-yl)-1H-pyrazole-3-carboxamide] here?
**A.** empêche le mAEA d'avoir ses effets pro-pigmentants

**Q.** And the activity at 0.1 µM ([2]; light or radiation study, 360 h, with UV irradiation, 0,1µM 150mJ/cm^2 UVB SYST D15, irradiated DMSO = 131,914894, read-out: mélanine, % par rapport au témoin (DMSO 1/1000 = 100))?
**A.** 76.6%

**Q.** And the activity at 0.5 µM ([2]; light or radiation study, 360 h, with UV irradiation, 0,5µM 150mJ/cm^2 UVB SYST D15, irradiated DMSO = 131,914894, read-out: mélanine, % par rapport au témoin (DMSO 1/1000 = 100))?
**A.** 55.3%

**Q.** What about the activity at 0.1 µM ([2]; light or radiation study, 408 h, without UV irradiation, 0,1µM SYST D17, read-out: mélanine, % par rapport au témoin (DMSO 1/1000 = 100)) of the same molecule?
**A.** 64.5%

**Q.** And the activity at 0.5 µM ([2]; light or radiation study, 408 h, without UV irradiation, 0,5µM SYST D17, read-out: mélanine, % par rapport au témoin (DMSO 1/1000 = 100))?
**A.** 72.4%

**Q.** What about the “production de mélanine dans les épidermes pigmentés reconstruits” value ([2]; with UV irradiation, 0,1 and 0,5µM) of the same molecule?
**A.** diminution importante de la production de mélanine

**Q.** What about the “production de mélanine dans les épidermes pigmentés reconstruits” value ([2]; without UV irradiation, 0,1 and 0,5µM) of the same molecule?
**A.** diminution importante de la production de mélanine

**Q.** How did the “quantité de mélanine dans les mélanocytes (NHEM)” value [1] turn out when `CCCCC/C=C\C/C=C\C/C=C\C/C=C\CCCC(=O)N[C@H](C)CO` [mAEA, R(+)-arachidonyl-1'-hydroxy-2'-propylamide] was run?
**A.** augmentent de manière significative la quantité de mélanine
